Like-named read-outs stand apart in the source and are kept apart here.
Experiments:
Assay type in all cases: biochemical
[1] = molecular target: T1, human stromelysin (MMP-3) catalytic domain (Homo sapiens, UniProt P08254); assay: Enzymatic activity of the catalytic domain of human stromelysin (MMP 3), fluorogenic substrate; details: Table 2; pH 7.5
T1 construct: catalytic domain of human stromelysin (MMP 3); made in house
Method: (§1) Preparation and determination of the enzymatic activity of the catalytic domain of human stromelysin (MMP 3) and neutrophil collagenase (MMP8).
(§2) The two enzymes—stromelysin (MMP-3) and neutrophil collagenase (MMP-8)—were prepared as described by Ye et al. (Biochemistry; 31 (1992) pages 11231-11235). To measure the enzymic activity or the enzyme inhibitory effect, 70 μl of buffer solution and 10 μl of enzyme solution are incubated at physiological pH with 10 μl of a 10% strength (v/v) aqueous dimethyl sulfoxide solution which optionally contains the enzyme inhibitor for 15 minutes. After addition of 10 μl of a 10% strength (v/v) aqueous dimethyl sulfoxide solution which contains 1 mmol/l of the substrate, the enzymic reaction is followed by fluorescence spectroscopy (328 nm (ex)/393 nm(em)).
(§3) The enzymic activity is represented as increase in extinction/minute. The IC50 values listed in table 2 are measured as the inhibitor concentrations leading in each case to 50% inhibition of the enzyme.
(§4) The buffer solution contains 0.05% Brij (Sigma, Deisenhofen, Germany) and 0.1 mol/l Tris/HCl, 0.1 mol/l NaCl, 0.01 mol/l CaCl2 and 0.1 mol/l piperazine-N,N′-bis[2-ethanesulfonic acid] (pH=7.5).
(§5) The enzyme solution contains 5 μg/ml of one of the enzyme domains prepared as described by Ye et al. The substrate solution contains 1 mmol/l of the fluorogenic substrate (7-methoxycoumarin-4-yl)acetyl-Pro-Leu-Gly-Leu-3-(2,4-dinitrophenyl)-L-2,3-diaminopropionyl-Ala-Arg-NH2 (Bachem, Heidelberg, Germany).

[2] = molecular target: T2, human neutrophil collagenase (MMP-8) catalytic domain (Homo sapiens, UniProt P22894); assay: Enzymatic activity of the catalytic domain of human neutrophil collagenase (MMP 8), fluorogenic substrate; details: Table 2; pH 7.5
T2 construct: catalytic domain of human stromelysin (MMP 3) and neutrophil collagenase (MMP8); made in house
T2 sequence (P22894 100-262 limits assumed): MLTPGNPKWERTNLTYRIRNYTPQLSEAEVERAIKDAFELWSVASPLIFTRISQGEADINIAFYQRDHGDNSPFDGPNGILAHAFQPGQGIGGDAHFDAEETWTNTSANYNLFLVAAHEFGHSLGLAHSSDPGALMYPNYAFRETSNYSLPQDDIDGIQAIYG
Method: as §1, §2, §3, §4, §5

[3] = molecular target: T3, human collagenase 3 (MMP-13) catalytic domain (Homo sapiens, UniProt P45452); assay: Enzymatic activity of the catalytic domain of human collagenase 3 (MMP-13), fluorogenic substrate
T3 construct: catalytic domain of human collagenase 3 (MMP-13); purchased INVITEK, Berlin 30 100 803
Method: Determination of the enzymatic activity of the catalytic domain of human collagenase 3 (MMP-13).
Activation of the proenzyme:
2 parts by volume of proenzyme are incubated with 1 part by volume of APMA solution at 37° C. for 1.5 hours. The APMA solution is prepared from a 10 mmol/L
p-aminophenylmercuric acetate solution in […] by dilution with 3 parts by volume of Tris/HCl buffer pH7.5 (see below). The pH is adjusted to between 7.0 and 7.5 by adding 1 mmol/L HCl. After activation of the enzyme it is diluted with the Tris/HCl buffer to a concentration of 1.67 μg/mL.
To measure the enzymic activity, 10 μL of enzyme solution are incubated with 10 μL of a 3% strength (v/v) buffered dimethyl sulfoxide solution (reaction 1) for 15 minutes. To measure the enzyme inhibitory activity, 10 μL of enzyme solution are incubated with 10 μL of a 3% strength (v/v) buffered dimethyl sulfoxide solution which contains the enzyme inhibitor (reaction 2).
The enzymic reaction both in reaction 1 and in reaction 2 is followed, after addition of 10 μL of a 3% strength (v/v) aqueous dimethyl sulfoxide solution which contains 0.75 mmol/L of the substrate, by fluorescence spectroscopy (328 nm (extinction)/393 nm(emission)).
The enzymic activity is represented as increase in extinction/minute.
The inhibitory effect is calculated as percentage inhibition by the following formula:
% inhibition=100−[(increase in extinction/minute in reaction 2)/(increase in extinction/minute in reaction 1)×100].
The IC50, i.e. the inhibitor concentration necessary for 50% inhibition of enzymic activity, is found by plotting a graph of the percentage inhibitions at various inhibitor concentrations.
The buffer solution contains 0.05% Brij (Sigma, Deisenhofen, Germany) and 0.1 mol/L Tris/HCl, 0.1 mol/L NaCl, 0.01 mol/L CaCl2 (pH=7.5).
The enzyme solution contains 1.67 μg/mL of the enzyme domain.
The substrate solution contains 0.75 mmol/L of the fluorogenic substrate (7-methoxycoumarin-4-yl)acetyl-Pro-Leu-Gly-Leu-3-(2,4-dinitrophenyl)-L-2,3-diaminopropionyl-Ala-Arg-NH2 (Bachem, Heidelberg, Germany).

[4] = Table 2, pH 7.5, read-out: MMP 13 IC50
[5] = Table 3, comparative examples, determination as described above, read-out: MMP 13

T1 sequence (P08254 100-272 limits assumed): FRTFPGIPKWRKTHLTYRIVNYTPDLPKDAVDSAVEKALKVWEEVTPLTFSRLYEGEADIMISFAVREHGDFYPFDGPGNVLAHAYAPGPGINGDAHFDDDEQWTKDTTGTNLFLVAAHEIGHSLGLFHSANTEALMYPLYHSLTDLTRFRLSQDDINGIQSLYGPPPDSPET

Row | Structure (SMILES) | IC50 [1] [nM] | IC50 [2] [nM] | IC50 [3, 4] [nM] | IC50 [3, 5] [nM]
1 | CCOC(=O)Nc1ccc(-c2ccc(S(=O)(=O)N3Cc4ccccc4C[C@@H]3C(=O)O)cc2)cc1 [Example 1] | 3000 | 2300 | 40 | 
2 | CC(C)OC(=O)Nc1ccc(-c2ccc(S(=O)(=O)N3Cc4ccccc4C[C@@H]3C(=O)O)cc2)cc1 [Example 2, 2-(4′-Isopropoxycarbonylaminobiphenyl-4-sulfonyl)-1,2,3,4-tetrahydroisocquinoline-3-(R)-carboxylic acid] | 3000 | 6000 | 30 | 
3 | CCCCCCOC(=O)Nc1ccc(-c2ccc(S(=O)(=O)N3Cc4ccccc4C[C@@H]3C(=O)O)cc2)cc1 [Example 3] | > 10000 | 2000 | 70 | 
4 | CC(C)COC(=O)Nc1ccc(-c2ccc(S(=O)(=O)N3Cc4ccccc4C[C@@H]3C(=O)O)cc2)cc1 [Example 4] | 2000 | 3000 | 20 | 
5 | O=C(Nc1ccc(-c2ccc(S(=O)(=O)N3Cc4ccccc4C[C@@H]3C(=O)O)cc2)cc1)OCC1CC1 [Example 5] | 3000 | 4000 | 20 | 
6 | CC(C)OC(=O)Nc1ccc(-c2ccc(S(=O)(=O)N3Cc4ncn(C)c4C[C@@H]3C(=O)O)cc2)cc1 [Example 6] |  | 4000 | 80 | 
7 | Cn1cnc2c1C[C@H](C(=O)O)N(S(=O)(=O)c1ccc(-c3ccc(NC(=O)OCc4ccccc4)cc3)cc1)C2 [Example 7] | > 10000 | 1000 | 60 | 
8 | Cn1cnc2c1C[C@H](C(=O)O)N(S(=O)(=O)c1ccc(-c3ccc(NC(=O)OCC(C)(C)C)cc3)cc1)C2 [Example 8] | > 10000 | 5000 | 70 | 
9 | CC(C)COC(=O)Nc1ccc(-c2ccc(S(=O)(=O)N3Cc4ncn(C)c4C[C@@H]3C(=O)O)cc2)cc1 [Example 9] |  | 200 | 60 | 
10 | Cn1cnc2c1C[C@H](C(=O)O)N(S(=O)(=O)c1ccc(-c3ccc(NC(=O)OCC4CC4)cc3)cc1)C2 [Example 10] | > 10000 | 700 | 20 | 
11 | O=C(O)[C@H]1Cc2ccccc2CN1S(=O)(=O)c1ccc(-c2ccccc2)cc1 [Example 34, reference compound] |  |  |  | 50
12 | O=C(O)[C@H]1Cc2ccccc2CN1S(=O)(=O)c1ccc(-c2ccc(Cl)cc2)cc1 [Example 35, reference compound] |  |  |  | 30
13 | CN(C)c1ccc(-c2ccc(S(=O)(=O)N3Cc4ccccc4C[C@@H]3C(=O)O)cc2)cc1 [Example 39, reference compound] |  |  |  | 2.9
